Measurements taken from patent US20100056526A1, “HETEROMONOCYCLIC COMPOUND AND USE THEREOF” (Takeda Pharmaceutical Company Limited, priority 2006, published 2010).
Counter-ions that a name gives are not always drawn. Like-named read-outs stand apart in the source and are kept apart here.

Assays:
PPARγ = target: T1, PPARγ (Homo sapiens, UniProt P37231); test: Evaluation of PPARγ activating action (luciferase reporter in PPARγ:RXRα:4ERPP/CHO-K1 cells); type: cell-based; details: CHO-K1, 24 h, read-out: PPARγ activating action (activation % (10^−6 M))
T1 construct: expressed in transfected cells; host or cells: CHO-K1
T1 sequence (P37231 1-477 isoform P37231-2): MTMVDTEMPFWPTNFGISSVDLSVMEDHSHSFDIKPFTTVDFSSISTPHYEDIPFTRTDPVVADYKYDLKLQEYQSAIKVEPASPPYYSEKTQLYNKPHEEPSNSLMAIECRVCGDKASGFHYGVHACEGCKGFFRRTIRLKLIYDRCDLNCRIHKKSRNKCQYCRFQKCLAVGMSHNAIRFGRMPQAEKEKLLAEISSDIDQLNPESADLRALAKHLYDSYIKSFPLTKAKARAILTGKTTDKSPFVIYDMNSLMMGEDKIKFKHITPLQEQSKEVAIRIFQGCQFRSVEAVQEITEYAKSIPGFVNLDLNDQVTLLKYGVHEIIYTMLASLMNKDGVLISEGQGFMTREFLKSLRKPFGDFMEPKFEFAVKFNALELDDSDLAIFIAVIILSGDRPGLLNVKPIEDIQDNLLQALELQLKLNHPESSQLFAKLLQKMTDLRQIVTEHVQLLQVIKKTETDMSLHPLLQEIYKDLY
T1 sequence (P19793 1-462 partner): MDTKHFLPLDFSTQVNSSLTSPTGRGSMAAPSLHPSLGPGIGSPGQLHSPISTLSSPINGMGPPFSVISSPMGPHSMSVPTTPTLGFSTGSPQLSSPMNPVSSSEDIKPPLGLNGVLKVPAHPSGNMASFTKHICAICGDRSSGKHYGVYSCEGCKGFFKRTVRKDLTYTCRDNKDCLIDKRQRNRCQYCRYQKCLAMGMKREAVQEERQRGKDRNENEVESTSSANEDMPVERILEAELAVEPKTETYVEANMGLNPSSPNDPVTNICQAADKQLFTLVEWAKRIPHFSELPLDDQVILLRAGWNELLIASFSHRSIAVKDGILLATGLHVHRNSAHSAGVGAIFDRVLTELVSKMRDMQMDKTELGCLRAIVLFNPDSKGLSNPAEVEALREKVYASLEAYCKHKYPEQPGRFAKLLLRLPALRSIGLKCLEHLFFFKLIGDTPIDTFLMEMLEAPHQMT
Method: PPARγ:RXRα:4ERPP/CHO-K1 cells obtained in the following Reference Example 5 were cultured in F12 medium [manufactured by INVITROGEN, USA] containing 10% fetal bovine serum [manufactured by MOREGATE, Australia], seeded in a 96-well half area white plate [manufactured by Corning Coster Corporation, USA] at the density of 5×10^3 cells/well and cultured in a CO2 gas incubator at 37° C. overnight.
Then the medium was removed from the 96-well half area white plate, 45 μl of Ham's F12 medium containing 0.1% fatty acid-free bovine serum albumin (BSA) and 5 μl of test compound were added, and the cells were cultured in a CO2 gas incubator at 37° C. for 1 day. The medium was removed and 20 μl of PicaGene 7.5 [manufactured by TOYO INK MFG. CO., LTD.,.Japan] diluted 2-fold with HBSS (HANKS' BALANCED SALT SOLUTION) [manufactured by BIO WHITTAKER, USA] was added. After stirring, the luciferase activity was determined using 1420 ARVO Multilabel Counter [manufactured by PerkinElmer, USA].
The percent (%) was calculated from the luciferase activity of each test compound when the luciferase activity of the control compound (compound X: 5-[3-(4-{[2-(2-furyl)-5-methyl-1,3-oxazol-4-yl]methoxy}-3-methoxyphenyl)propyl]-1,3-oxazolidine-2,4-dione) (1 μM) was 100% and that of the test compound non-administration group was 0%.
A CHO-K1 cell cultured in a 150 cm^2 cell culture flask [manufactured by Corning Costar Corporation, USA] containing Ham's F12 medium [manufactured by INVITROGEN, USA] supplemented with 10% fetal bovine serum [manufactured by INVITROGEN, USA] was scraped by treating with 0.5 g/L trypsin-0.2 g/L EDTA (ethylenediaminetetraacetic acid) [manufactured by Life Technologies, Inc., USA], and then the cell was washed with PBS (Phosphate-buffered saline) [manufactured by INVITROGEN, USA], centrifuged (1000 rpm, 5 minutes) and suspended in PBS. Subsequently, DNA was introduced into the cell under the conditions shown below using GENE PULSER [manufactured by Bio-Rad Laboratories, USA].
Namely, to a cuvette having a 0.4 cm gap were added 8×10^6 cells and 10 μg of plasmid pVgRXR2-hPPARγ obtained in Reference Example 4 and 10 μg of reporter plasmid pGL3-4ERPP-TK neo obtained in Reference Example 3, which was subjected to electroporation at the voltage of 0.25 kV under the capacitance of 960 μF. Subsequently, the cell was transferred into a F12 medium containing 10% fetal bovine serum and cultured for 24 hours, and then the cell was scraped again and centrifuged, and then suspended in Ham's F12 medium containing 10% fetal bovine serum supplemented with 500 μg/ml of Geneticin [manufactured by INVITROGEN, USA] and 250 μg/ml of Zeocin [manufactured by INVITROGEN, USA]. The obtained suspension was diluted to the density of 10^4 cells/ml and inoculated in a 96-well plate [manufactured by Corning Costar Corporation, USA], which was cultured in a CO2 gas incubator at 37° C., whereby obtaining a Geneticin- and Zeocin-resistant transformant.
Subsequently, after the transformant cell line thus obtained was cultured in a 24-well plate [manufactured by Corning Costar Corporation, USA], a cell line in which the luciferase was expressed and induced, i.e., PPARγ:RXRα:4ERPP/CHO-K1 cell was selected by the addition of 10 μM pioglitazone hydrochloride.

human AT1 receptor = target: T2, human AT1 receptor (Homo sapiens, UniProt P30556); test: Binding assay using human AT1 receptor-expressing CHO-K1 cell membrane fraction ([125I]-angiotensin II); details: 22.5 pM [125I]-angiotensin II, 9 μg AT1 membrane, 1 hr room temperature; read-out: AT1 receptor binding inhibitory action (IC50 (nM))
T2 construct: expressed in transfected cells; host or cells: CHO-K1
T2 sequence (P30556 1-359): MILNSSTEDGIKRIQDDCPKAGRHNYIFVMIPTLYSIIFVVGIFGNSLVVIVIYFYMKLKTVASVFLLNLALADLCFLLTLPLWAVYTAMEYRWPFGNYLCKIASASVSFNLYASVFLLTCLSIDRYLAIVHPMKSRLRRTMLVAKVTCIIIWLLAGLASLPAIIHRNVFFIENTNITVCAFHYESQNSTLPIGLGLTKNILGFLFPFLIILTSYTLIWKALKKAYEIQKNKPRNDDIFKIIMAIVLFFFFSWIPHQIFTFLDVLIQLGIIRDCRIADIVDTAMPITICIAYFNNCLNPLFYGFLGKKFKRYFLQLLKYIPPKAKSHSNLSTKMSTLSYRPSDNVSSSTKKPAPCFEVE
Method: The membrane fraction for human AT1 receptor binding assay was prepared as follows. CHO-K1 cell capable of stable expression of human AT1 receptor was cultured, recovered, suspended in homogenize buffer (10 mM NaHCO3 (pH 7.4), 5 mM EDTA, 1×Complete EDTA free) [manufactured by Roche, Switzerland], and homogenized. The homogenate was centrifuged at low-speed (900×g, 10 min, 4° C.), and the supernatant was recovered and ultracentrifuged (90,000×g, 1 hr, 4° C.). The supernatant was discarded, and the pellets were resuspended in resuspension buffer (50 mM Tris (pH 7.4), 1 mM EDTA, 1×Complete EDTA free).
The binding assay was performed in the presence of 22.5 pM [^125I]-angiotensin II [manufactured by PerkinElmer, USA], 9 μg of AT1 membrane and test compound in 100 μL (total reaction volume) of reaction buffer (50 mM Tris (pH 7.4), 10 mM MgCl2 supplemented or not supplemented with 0.3 mg/mL fatty acid-free bovine serum albumin [manufactured by Wako Pure Chemical Industries, Ltd., Japan]). The reaction mixture was incubated in 96 well polypropylene plate for 1 hr at room temperature, and the reaction was quenched by rapid filtration (96 well cell harvester) through a GF/C filter treated with wash buffer (50 mM Tris (pH 7.4)). Subsequently, the filter was washed 5 times with 0.3 mL of ice-cooled wash buffer. The filter was air-dried, and [^125I]-angiotensin II binding radioactivity was assayed with Top Count scintillation counter. Total binding was measured in the presence of 1% DMSO and nonspecific binding was measured in the presence of 1 μM CV-11974. The binding data was analyzed by GraphPad Prism program and the IC50 value (compound concentration showing 50% of the maximum value of inhibition percent) of the test compound was calculated.

[1] = test compound 10^−6 M, luciferase activity relative to control compound X (1 μM) = 100%, non-administration group = 0%

| SMILES | activation at 1 µM (PPARγ; [1]) | IC50 (human AT1 receptor) | activation at 1 µM (PPARγ) |
| --- | --- | --- | --- |
| CCCc1nc(CC)n(-c2ccc(OC3CCC[C@H]3O)cc2)c(=O)c1Cc1ccc(-c2ccccc2-c2noc(=O)[nH]2)cc1 (stereo partly drawn) [Example 381, 2-ethyl-3-(4-{[(2R)-2-hydroxycyclopentyl]oxy}phenyl)-5-{[2′-(5-oxo-4,5-dihydro-1,2,4-oxadiazol-3-yl)biphenyl-4-yl]methyl}-6-propylpyrimidin-4(3H)-one] | 28.2% | 1.2 nM | – |
| CCCc1nc(C)n(-c2ccc(OC(CC)CC)cc2)c(=O)c1Cc1ccc(-c2ccccc2-c2noc(=O)[nH]2)cc1 [Example 256, 3-[4-(1-ethylpropoxy)phenyl]-2-methyl-5-{[2′-(5-oxo-4,5-dihydro-1,2,4-oxadiazol-3-yl)biphenyl-4-yl]methyl}-6-propylpyrimidin-4(3H)-one] | 45.7% | 2 nM | – |
| CCCc1nc(C)n(-c2ccc3c(c2)C(=O)CC(C)(C)O3)c(=O)c1Cc1ccc(-c2ccccc2-c2noc(=O)[nH]2)cc1 [Example 145, 3-(2,2-dimethyl-4-oxo-3,4-dihydro-2H-chromen-6-yl)-2-methyl-5-{[2′-(5-oxo-4,5-dihydro-1,2,4-oxadiazol-3-yl)biphenyl-4-yl]methyl}-6-propylpyrimidin-4(3H)-one] | 36.5% | 1.8 nM | – |
| CCCCc1nc(C)n(-c2cccc(C(C)(C)O)c2)c(=O)c1Cc1ccc(-c2ccccc2-c2noc(=O)[nH]2)cc1 [Example 217, 6-butyl-3-[3-(1-hydroxy-1-methylethyl)phenyl]-2-methyl-5-{[2′-(5-oxo-4,5-dihydro-1,2,4-oxadiazol-3-yl)biphenyl-4-yl]methyl}pyrimidin-4(3H)-one] | 26.8% | 1.1 nM | – |
| CCCc1nc(OC)n(-c2ccc(OC(C)C)cc2)c(=O)c1Cc1ccc(-c2ccccc2-c2noc(O)n2)cc1 [Example 368, 3-(4-isopropoxyphenyl)-2-methoxy-5-{[2′-(5-oxo-4,5-dihydro-1,2,4-oxadiazol-3-yl)biphenyl-4-yl]methyl}-6-propylpyrimidin-4(3H)-one] | 50.2% | 2 nM | – |
| CCCc1nc(C)n(-c2ccc(OC(C)CC)cc2)c(=O)c1Cc1ccc(-c2ccccc2-c2noc(=O)[nH]2)cc1 (stereo not drawn) [Example 271, 3-(4-sec-butoxyphenyl)-2-methyl-5-{[2′-(5-oxo-4,5-dihydro-1,2,4-oxadiazol-3-yl)biphenyl-4-yl]methyl}-6-propylpyrimidin-4(3H)-one] | 37.1% | 1.9 nM | – |
| CCCCc1nc(C2CC2)n(-c2ccccc2)c(=O)c1Cc1ccc(-c2ccccc2-c2noc(=O)[nH]2)cc1 [Example 310, 6-butyl-2-cyclopropyl-5-{[2′-(5-oxo-4,5-dihydro-1,2,4-oxadiazol-3-yl)biphenyl-4-yl]methyl}-3-phenylpyrimidin-4(3H)-one potassium salt] | – | 1.9 nM | 27.1% |

Now from value to compound, other results behind:

| activation at 1 µM (PPARγ; [1]) | IC50 (human AT1 receptor) | SMILES | activation at 1 µM (PPARγ) |
| --- | --- | --- | --- |
| 55.1% | 1.5 nM | CCCCc1nc(C)n(Cc2ccc(OC)cc2)c(=O)c1Cc1ccc(-c2ccccc2-c2noc(=O)[nH]2)cc1 [Example 58, 6-butyl-3-(4-methoxybenzyl)-2-methyl-5-{[2′-(5-oxo-4,5-dihydro-1,2,4-oxadiazol-3-yl)biphenyl-4-yl]methyl}pyrimidin-4(3H)-one] | – |
| 34.4% | 1.6 nM | CCCc1nc(OC)n(-c2ccc(O[C@@H]3C[C@@H](C)O[C@@H](C)C3)cc2)c(=O)c1Cc1ccc(-c2ccccc2-c2noc(=O)[nH]2)cc1 [Example 388, 3-(4-{[(2R,4s,6S)-2,6-dimethyltetrahydro-2H-pyran-4-yl]oxy}phenyl)-2-methoxy-5-{-[2′-(5-oxo-4.,5-dihydro-1,2,4-oxadiazol-3-yl)biphenyl-4-yl]methyl}-6-propylpyrimidin-4(3H)-one] | – |
| 20.3% | 1.3 nM | CCCc1nc(CC)c(-c2ccc(OC(C)(C)CO)cc2)c(=O)n1Cc1ccc(-c2ccccc2-c2noc(O)n2)cc1 [Example 512, 6-ethyl-5-[4-(2-hydroxy-1,1-dimethylethoxy)phenyl]-3-{[2′-(5-oxo-4,5-dihydro-1,2,4-oxadiazol-3-yl)biphenyl-4-yl]methyl}-2-propylpyrimidin-4(3H)-one] | – |
| – | 2.1 nM | CCCc1nc(C(F)F)n(-c2ccc(OC)cc2)c(=O)c1Cc1ccc(-c2ccccc2-c2noc(=O)[nH]2)cc1 [Example 410] | – |
